Source: patent US20160002247A1, “8-SUBSTITUTED IMIDAZOPYRIMIDINONE DERIVATIVE HAVING AUTOTAXIN INHIBITORY ACTIVITY” (THE UNIVERSITY OF TOKYO, priority 2013, published 2016)

Target: T1, Human autotaxin enzyme (Homo sapiens, UniProt Q13822)
T1 construct: purchased R&D System
Assay: Evaluation of autotaxin inhibitor, Method C (Test Example 3): 18:0 Lyso PC, choline assay, Resorufin fluorescence
Assay type: biochemical
Settings: Assay Method C (Test Example 3), human autotaxin, 18:0 Lyso PC substrate; read-out: Inhibitory Activity (autotaxin enzyme inhibitory activity, IC50 class)
Procedure, shortened: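 Human autotaxin in Tris-HCl pH 7.5, 150 mM NaCl, 5 mM MgCl2, 0.05% Triton X-100 reacted 2 h at room temperature with 18:0 Lyso PC (200 μM solution added). Released choline detected via choline oxidase/peroxidase/Amplex-type reagent, resorufin fluorescence (ex 531/em 598 nm); inhibition vs no-compound and no-enzyme controls, concentration-response curve.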

IC50	Structure (SMILES)
> 1000 nM	Cn1c(N2CCC[C@H]2C(=O)NCC(=O)O)cc(=O)n2cc(-c3ccc(Cl)cc3)nc12 [Compound 768]
10 to 100 nM	Cn1c(N2CCC[C@H]2C(=O)N[C@@H](CCc2ccccc2)C(=O)O)cc(=O)n2cc(-c3ccc(Cl)cc3)nc12 [Compound 769]
100 to 1000 nM	Cn1c(N2CCC[C@H]2C(=O)N[C@H](C(=O)O)C(C)(C)C)cc(=O)n2cc(-c3ccc(Cl)cc3)nc12 [Compound 770]
100 to 1000 nM	C[C@H](NC(=O)[C@@H]1CCCN1c1cc(=O)n2cc(-c3ccc(Cl)cc3)nc2n1C)C(=O)O [Compound 771]
100 to 1000 nM	Cn1c(N2C[C@H](O)C[C@H]2C(=O)N[C@@H](Cc2ccccc2)C(=O)O)cc(=O)n2cc(-c3ccc(Cl)cc3)nc12 [Compound 772]
> 1000 nM	Cn1c(N2C[C@H](O)C[C@H]2C(=O)NCC(=O)O)cc(=O)n2cc(-c3ccc(Cl)cc3)nc12 [Compound 773]
10 to 100 nM	Cn1c(N2C[C@H](O)C[C@H]2C(=O)N[C@H](C(=O)O)C(C)(C)C)cc(=O)n2cc(-c3ccc(Cl)cc3)nc12 [Compound 774]
< 10 nM	CCCCCn1c(N2C[C@@H](O)C[C@H]2C(=O)N[C@@H](Cc2ccccc2)C(=O)O)cc(=O)n2cc(-c3ccc(Cl)cc3)nc12 [Compound 775]
< 10 nM	CCCCCn1c(N2C[C@@H](O)C[C@H]2C(=O)NCC(=O)O)cc(=O)n2cc(-c3ccc(Cl)cc3)nc12 [Compound 776]
< 10 nM	CCCCCn1c(N2C[C@@H](O)C[C@H]2C(=O)N[C@@H](CCc2ccccc2)C(=O)O)cc(=O)n2cc(-c3ccc(Cl)cc3)nc12 [Compound 777]
< 10 nM	CCCCCn1c(N2C[C@@H](O)C[C@H]2C(=O)N[C@H](C(=O)O)C(C)(C)C)cc(=O)n2cc(-c3ccc(Cl)cc3)nc12 [Compound 778]
< 10 nM	CCCCCn1c(N2C[C@@H](O)C[C@H]2C(=O)N[C@@H](C)C(=O)O)cc(=O)n2cc(-c3ccc(Cl)cc3)nc12 [Compound 779]

Same assay, conditions: Assay Method C, human autotaxin, 18:0 Lyso PC substrate; read-out: Inhibitory Activity

Structure (SMILES)	IC50
CCCCCn1c(N2CCC[C@H]2C(=O)Nc2ccc(-c3nn[nH]n3)cc2)cc(=O)n2cc(-c3ccc(Cl)cc3)nc12 [Compound 784]	100 to 1000 nM
CCCCCn1c(N2CCC[C@H]2C(=O)Nc2cccc(-c3nn[nH]n3)c2)cc(=O)n2cc(-c3ccc(Cl)cc3)nc12 [Compound 787]	100 to 1000 nM
CCCCCn1c(N2CCC[C@H]2C(=O)NC(C(N)=O)c2ccccc2)cc(=O)n2cc(-c3ccc(Cl)cc3)nc12 (some centres unmarked) [Compound 789]	10 to 100 nM
CCCCCn1c(N2CCC[C@H]2C(=O)Nc2ccccc2-c2nn[nH]n2)cc(=O)n2cc(-c3ccc(Cl)cc3)nc12 [Compound 791]	100 to 1000 nM
CCCCCn1c(N2CCC[C@H]2C(=O)Nc2ccc(O)c(OC)c2)cc(=O)n2cc(-c3ccc(Cl)cc3)nc12 [Compound 793]	100 to 1000 nM
CCCCCn1c(N2CCC[C@H]2C(=O)Nc2nonc2OC)cc(=O)n2cc(-c3ccc(Cl)cc3)nc12 [Compound 794]	10 to 100 nM
CCCCCn1c(N2CCC[C@H]2C(=O)Nc2ccc(Oc3nn[nH]n3)cc2)cc(=O)n2cc(-c3ccc(Cl)cc3)nc12 [Compound 796]	100 to 1000 nM
CCCCCn1c(N2CCC[C@H]2C(=O)Nc2ccc(OC)c(O)c2)cc(=O)n2cc(-c3ccc(Cl)cc3)nc12 [Compound 798]	100 to 1000 nM
CCCCCn1c(N2CCC[C@H]2C(=O)Oc2cc(N)ccc2OC)cc(=O)n2cc(-c3ccc(Cl)cc3)nc12 [Compound 801]	100 to 1000 nM
CCCCCn1c(N2CCCCC2CC)cc(=O)n2cc(-c3ccc(Cl)cc3)nc12 (centres unmarked) [Compound 802]	> 1000 nM
CCCCCn1c(N2CCCCC2c2ccccc2)cc(=O)n2cc(-c3ccc(Cl)cc3)nc12 (centres unmarked) [Compound 803]	> 1000 nM
CCCCCn1c(N2CCCC(C)(C)C2)cc(=O)n2cc(-c3ccc(Cl)cc3)nc12 [Compound 804]	> 1000 nM
CCCCCn1c(N2CCCCC2CCN2CCOCC2)cc(=O)n2cc(-c3ccc(Cl)cc3)nc12 (centres unmarked) [Compound 805]	100 to 1000 nM
CCCCCn1c(N2CCCCC2CNC(=O)OC(C)(C)C)cc(=O)n2cc(-c3ccc(Cl)cc3)nc12 (centres unmarked) [Compound 806]	> 1000 nM
CCCCCn1c(N2CCC[C@@H](c3ccccc3)C2)cc(=O)n2cc(-c3ccc(Cl)cc3)nc12 [Compound 813]	> 1000 nM
CCCCCn1c(-c2ccc(C(=O)NCCNCCO)cc2)cc(=O)n2cc(-c3ccc(Cl)cc3)nc12 [Compound 817]	< 10 nM
Cn1cc(Cc2cccc(C(=O)O)c2)c(=O)n2cc(-c3ccc(Cl)cc3)nc12 [Compound 819]	100 to 1000 nM

Structure (SMILES)	IC50
CCCCCn1cc(Cc2cccc(C(=O)O)c2)c(=O)n2cc(-c3ccc(Cl)cc3)nc12 [Compound 820]	10 to 100 nM
CCOC(=O)c1cccc(Cc2cn(CCCCC#N)c3nc(-c4ccc(Cl)cc4)cn3c2=O)c1 [Compound 821]	100 to 1000 nM
CCOC(=O)c1cccc(Cc2cn(CC3CC3)c3nc(-c4ccc(Cl)cc4)cn3c2=O)c1 [Compound 822]	> 1000 nM
O=C(O)c1cccc(Cc2cn(CC3CC3)c3nc(-c4ccc(Cl)cc4)cn3c2=O)c1 [Compound 823]	10 to 100 nM
N#CCCCCn1cc(Cc2cccc(C(=O)O)c2)c(=O)n2cc(-c3ccc(Cl)cc3)nc12 [Compound 824]	< 10 nM
CCCCC(C(C)=O)n1cc(Cc2cccc(C(=O)O)c2)c(=O)n2cc(-c3ccc(Cl)cc3)nc12 (centres unmarked) [Compound 825]	> 1000 nM
O=C(O)c1cccc(Cc2cn(CCCC(F)(F)F)c3nc(-c4ccc(Cl)cc4)cn3c2=O)c1 [Compound 826]	10 to 100 nM
O=C(O)Cc1cn(CCCC(F)(F)F)c2nc(-c3ccc(Cl)cc3)cn2c1=O [Compound 827]	> 1000 nM
CCOC(=O)Cc1cn(CCCC(F)(F)F)c2nc(-c3ccc(Cl)cc3)cn2c1=O [Compound 828]	> 1000 nM
N#CCNC(=O)Cc1cn(CCCC(F)(F)F)c2nc(-c3ccc(Cl)cc3)cn2c1=O [Compound 829]	100 to 1000 nM
N#CCCNC(=O)Cc1cn(CCCC(F)(F)F)c2nc(-c3ccc(Cl)cc3)cn2c1=O [Compound 830]	100 to 1000 nM
CN(CCC#N)C(=O)Cc1cn(CCCC(F)(F)F)c2nc(-c3ccc(Cl)cc3)cn2c1=O [Compound 831]	100 to 1000 nM
N#CCCCNC(=O)Cc1cn(CCCC(F)(F)F)c2nc(-c3ccc(Cl)cc3)cn2c1=O [Compound 832]	> 1000 nM
O=C(Cc1cn(CCCC(F)(F)F)c2nc(-c3ccc(Cl)cc3)cn2c1=O)N(CCO)CCO [Compound 833]	> 1000 nM
CN(CC#N)C(=O)Cc1cn(CCCC(F)(F)F)c2nc(-c3ccc(Cl)cc3)cn2c1=O [Compound 834]	100 to 1000 nM
N#CNC(=O)Cc1cn(CCCC(F)(F)F)c2nc(-c3ccc(Cl)cc3)cn2c1=O [Compound 835]	> 1000 nM
CC1CCCCN1C(=O)Cc1cn(CCCC(F)(F)F)c2nc(-c3ccc(Cl)cc3)cn2c1=O (centres unmarked) [Compound 836]	10 to 100 nM

Other lines, results leading:

IC50	Structure (SMILES)
100 to 1000 nM	Cn1c(N2CCC[C@H]2C(=O)NC(C)(C)C(=O)O)cc(=O)n2cc(-c3ccc(Cl)cc3)nc12 [Compound 780]
> 1000 nM	Cn1c(N2C[C@H](O)C[C@H]2C(=O)NC(C)(C)C(=O)O)cc(=O)n2cc(-c3ccc(Cl)cc3)nc12 [Compound 781]
100 to 1000 nM	C[C@H](NC(=O)[C@@H]1C[C@@H](O)CN1c1cc(=O)n2cc(-c3ccc(Cl)cc3)nc2n1C)C(=O)O [Compound 782]
10 to 100 nM	CCCCCn1c(N2CCC[C@H]2C(=O)Nc2nn[nH]n2)cc(=O)n2cc(-c3ccc(Cl)cc3)nc12 [Compound 783]
100 to 1000 nM	CCCCCn1c(N2CCC[C@H]2C(=O)NCC(O)C(F)(F)F)cc(=O)n2cc(-c3ccc(Cl)cc3)nc12 (some centres unmarked) [Compound 785]
100 to 1000 nM	CCCCCn1c(N2CCC[C@H]2C(=O)NCC(O)CC(F)(F)F)cc(=O)n2cc(-c3ccc(Cl)cc3)nc12 (some centres unmarked) [Compound 786]
> 1000 nM	CCCCCn1c(N2CCC[C@H]2C(=O)Nc2cc(O)[nH]n2)cc(=O)n2cc(-c3ccc(Cl)cc3)nc12 [Compound 788]
< 10 nM	CCCCCn1c(N2CCC[C@H]2C(=O)NCc2c[nH]nn2)cc(=O)n2cc(-c3ccc(Cl)cc3)nc12 [Compound 790]
100 to 1000 nM	CCCCCn1c(N2CCC[C@H]2C(=O)NC[C@H](O)C(F)(F)F)cc(=O)n2cc(-c3ccc(Cl)cc3)nc12 [Compound 792]
< 10 nM	CCCCCn1c(N2CCC[C@H]2C(=O)NCc2nn[nH]n2)cc(=O)n2cc(-c3ccc(Cl)cc3)nc12 [Compound 795]
10 to 100 nM	CCCCCn1c(N2CCC[C@H]2C(=O)N[C@@H](CC(C)C)C(N)=O)cc(=O)n2cc(-c3ccc(Cl)cc3)nc12 [Compound 797]
10 to 100 nM	CCCCCn1c(N2CCC[C@H]2C(=O)Nc2cc(O)no2)cc(=O)n2cc(-c3ccc(Cl)cc3)nc12 [Compound 799]
10 to 100 nM	CCCCCn1c(N2CCC[C@H]2C(=O)NC(C)C(O)C(F)(F)F)cc(=O)n2cc(-c3ccc(Cl)cc3)nc12 (some centres unmarked) [Compound 800]
10 to 100 nM	C#CCNC(=O)C1CCCCN1c1cc(=O)n2cc(-c3ccc(Cl)cc3)nc2n1CCCCC (centres unmarked) [Compound 807]
> 1000 nM	CCCCCn1c(N2CCCC[C@@H]2C)cc(=O)n2cc(-c3ccc(Cl)cc3)nc12 [Compound 808]
100 to 1000 nM	CCCCCn1c(N2CCCC(C(=O)O)C2C)cc(=O)n2cc(-c3ccc(Cl)cc3)nc12 (centres unmarked) [Compound 809]
100 to 1000 nM	CCCCCn1c(N2CC3CC3C2)cc(=O)n2cc(-c3ccc(Cl)cc3)nc12 (centres unmarked) [Compound 810]
> 1000 nM	CCCCCn1c(N2CCC[C@@H](C)C2)cc(=O)n2cc(-c3ccc(Cl)cc3)nc12 [Compound 811]
100 to 1000 nM	CCCCCn1c(N2CCC[C@H](C)C2)cc(=O)n2cc(-c3ccc(Cl)cc3)nc12 [Compound 812]
100 to 1000 nM	CCCCCn1c(N2CCCC[C@H]2C)cc(=O)n2cc(-c3ccc(Cl)cc3)nc12 [Compound 814]
< 10 nM	CCCCCn1c(N2CCC[C@H]2C(=O)NC(C(=O)O)C(F)(F)F)cc(=O)n2cc(-c3ccc(Cl)cc3)nc12 (some centres unmarked) [Compound 815]
10 to 100 nM	CCCCCn1c(N2CCC[C@H]2C(=O)NCC(=O)OC)cc(=O)n2cc(-c3ccc(Cl)cc3)nc12 [Compound 816]
